Test [1] concerns the target Substance-P receptor (Homo sapiens, UniProt P25103). Put plainly: Inhibition of [125I]-substance P binding to human neurokinin-1 (hNK-1) receptor in CHO cells. The format is cell-based.
Test [2] is described as follows: Inhibition of [3H]diltiazem binding to L-type calcium channels of rabbit skeletal muscle. Format: tissue-based, Oryctolagus cuniculus, Muscle tissue.

For 15 compounds, IC50 results are on record in ChEMBL document CHEMBL1159130, “1,2,4-Triacylpiperidine substance p antagonists: Separation of affinities for the NK-1 receptor and the L-type calcium channel” (Bioorg Med Chem Lett, 1995).

Substance-P receptor, sequence (P25103 whole entry): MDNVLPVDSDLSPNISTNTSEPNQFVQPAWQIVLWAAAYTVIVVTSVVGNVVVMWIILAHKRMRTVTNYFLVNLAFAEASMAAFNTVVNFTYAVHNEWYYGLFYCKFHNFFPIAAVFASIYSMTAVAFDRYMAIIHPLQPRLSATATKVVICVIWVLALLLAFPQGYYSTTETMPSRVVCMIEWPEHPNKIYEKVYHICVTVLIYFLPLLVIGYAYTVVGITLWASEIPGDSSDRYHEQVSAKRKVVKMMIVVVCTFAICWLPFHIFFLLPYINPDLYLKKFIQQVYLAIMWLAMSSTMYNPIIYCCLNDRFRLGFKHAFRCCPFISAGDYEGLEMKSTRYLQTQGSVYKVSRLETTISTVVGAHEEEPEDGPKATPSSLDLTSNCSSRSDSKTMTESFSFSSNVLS

`CCCCCN(CCCCC)C(=O)N1CCN(C(=O)N(c2ccccc2)c2cccc(Cl)c2)[C@H](C(=O)NCCCN(CC)CC)C1` yielded an IC50 in test [1] of 8 nM.
Regarding `CCCCCN(CCCCC)C(=O)[C@H]1CCN(C(=O)N(c2ccccc2)c2ccccc2)[C@H](C(=O)NCCN(CC(N)=O)Cc2ccccc2OC)C1`, the IC50 was determined as 5600 nM in test [2] and 1.8 nM in test [1].
Consider `CCCCCN(CCCCC)C(=O)[C@H]1CCN(C(=O)N(c2ccccc2)c2ccccc2)[C@H](C(=O)NCCN(C)Cc2ccccc2OC)C1`, for which the values for the IC50 in test [2] and in test [1] were 200 nM and 1.8 nM, respectively.
For `COC(=O)[C@H]1CCN(C(=O)N(c2ccccc2)c2ccccc2)[C@H](C(=O)NCCN(C)Cc2ccccc2OC)C1`, in that order: 470 nM and 250 nM.
For `CCCCCN(CCCCC)C(=O)[C@H]1CCN(C(=O)N(c2ccccc2)c2ccccc2)[C@H](C(=O)NCCNCC(N)=O)C1`, in that order: 2700 nM and 13 nM.
In the case of `COc1ccccc1CN[C@H]1C2CCN(CC2)[C@H]1C(c1ccccc1)c1ccccc1` [CP-96345], the concentration for half-maximal inhibition (IC50) in test [2] amounted to 240 nM.
On to `CCCCCN(CCCCC)C(=O)[C@@H]1CCN(C(=O)N(c2ccccc2)c2ccccc2)[C@H](C(=O)NCCN(C)Cc2ccccc2OC)C1`, for which, in test [1], the IC50 was found to be 73 nM.
As to `CCCCCN(CCCCC)C(=O)[C@H]1CCN(C(=O)N(c2ccccc2)c2ccccc2)[C@H](C(=O)O)C1`, the figures for the IC50 in test [2] and in test [1] were > 5000 nM and 33 nM, respectively.
For `COc1ccccc1CN(C)CCNC(=O)[C@@H]1C[C@@H](C(=O)N(Cc2ccccc2)Cc2ccccc2)CCN1C(=O)N(c1ccccc1)c1cccc(Cl)c1`, the values for the IC50 in test [2] and in test [1] were 110 nM and 0.7 nM, respectively.
Take `CCCCCN(CCCCC)C(=O)[C@H]1CCN(C(=O)N(c2ccccc2)c2cccc(Cl)c2)[C@H](C(=O)NCCNCC(N)=O)C1`: the values for the IC50 in test [2] and in test [1] were 3700 nM and 3.5 nM, respectively.
For `CCCCCN(CCCCC)C(=O)[C@H]1CCN(C(=O)N(c2ccccc2)c2ccccc2)[C@H](C(=O)NCCCN(CC)CC)C1`, in that order: 820 nM and 5.5 nM.
For `CCCCCN(CCCCC)C(=O)[C@H]1CCN(C(=O)N(c2ccccc2)c2cccc(Cl)c2)[C@H](C(=O)NCCN(CC(N)=O)C(=O)OCc2ccccc2)C1`, in that order: > 5000 nM and 1.8 nM.
On to `CCCCCN(CCCCC)C(=O)[C@H]1CCN(C(=O)N(c2ccccc2)c2cccc(Cl)c2)[C@H](C(=O)NCCN(CC(N)=O)Cc2ccccc2OC)C1`, for which the IC50 in test [2] was determined as 16200 nM; in test [1] it was 3.8 nM.
For `CCCCCN(CCCCC)C(=O)[C@H]1CCN(C(=O)N(c2ccccc2)c2cccc(Cl)c2)[C@H](C(=O)O)C1`, in that order: > 5000 nM and 20 nM.
For `CCCCCN(CCCCC)C(=O)[C@H]1CCN(C(=O)N(c2ccccc2)c2cccc(Cl)c2)[C@H](C(=O)NCCN(C)Cc2ccccc2OC)C1`, in that order: 210 nM and 1.4 nM.
